{"source": "patent US10385400B2", "about": "“Methods and kits for monitoring response to radiation therapies in cancer” (RNA Diagnostics Inc., priority 2012, dated 2019)", "key": {"[1]": {"system": "stage IIB to III locally advanced breast cancer", "conditions": "cited from earlier work"}, "[2]": {"system": "locally advanced breast cancer", "conditions": "paclitaxel 175 mg/m^2 and 5FU with 50.4 Gy, then 3 cycles of FEC, then surgery; 23 patients; cited from earlier work"}, "A2780 cells [3]": {"system": "A2780 cells", "assay": "A2780 cells treated with increasing doses of Epirubicin with and without 10 Gy radiation (RIN, RDI, RNA concentration)", "format": "cell-based", "conditions": "with 10 Gy radiation, 96 h post-radiation", "experimental": "A2780 cells were treated with increasing doses of Epirubicin with and without 10 Gy radiation.A2780 cells were plated into 6 cm plates in 4 ml of RPMI culture medium. The plates were placed in the incubator and the cells were allowed to adhere overnight. The next day, the medium was removed from all plates and new media containing the appropriate epirubicin concentration (1 pM, 5 pM, 20 nM, 50 nM, and 100 nM) was added to the plates. Cells were pre-treated for 24 h with epirubicin prior to receiving radiation treatment. The following day (24 h post epirubicin drug-treatment), the cells were given 10 Gy of x-ray radiation treatment (300 kV, 9 mA) in approximately 4.3 min of x-ray exposure using a RS320 Irradiation System (Gulmay Medical) The cells were returned to the cell culture incubator, and RNA was extracted from the cells 96 h post-radiation treatment (which corresponds to 120 h post-epirubicin treatment)."}, "MCF-7 cells": {"system": "MCF-7 cells", "assay": "MCF-7 cells treated with increasing doses of Epirubicin with and without 10 Gy radiation (RIN, RDI, RNA concentration)", "format": "cell-based", "experimental": "FIG. 9: Graphs of MCF-7 cells were treated with increasing doses of Epirubicin with and without 10 Gy radiation. A) RIN value vs. Epirubicin; B) RDI value vs. Epirubicin; C) RNA concentration vs. Epirubicin Dose."}, "metastatic breast cancer": {"system": "metastatic breast cancer", "conditions": "cited from earlier work"}, "[4]": {"system": "SKBR3 breast tumour cells", "assay": "RNA concentration and RIN in SKBR3 cells after radiation with or without docetaxel", "format": "cell-based", "experimental": "It was then examined whether similar observations could be observed in vitro for specific breast tumour cell lines. […] If cells were pre-treated with 0.1 μM docetaxel prior to 10 Gray radiation, a 5-fold reduction in cellular RNA concentration was observed (19% of untreated cells). RNA concentration decreases 2 fold (or more) in BT-20, A2780 and MB-468 cells with radiation only. […] Concurrent docetaxel treatment with radiation therapy dramatically reduces cellular RNA content, consistent with the observed findings for patients with locally advanced breast cancer treated with FEC-D chemotherapy followed by radiation treatment. Similar findings were observed when the effects of the above treatments on RIN values were examined in SKBR3 (HER2+, ER−) cells (FIG. 6B)."}, "[5]": {"system": "A2780 ovarian tumour cells", "assay": "RNA concentration and RIN in A2780 cells after radiation with or without docetaxel", "format": "cell-based", "experimental": "Experiments were conducted to assess whether radiation with or without docetaxel treatment could induce changes in cellular RNA concentration and/or RIN values in A2780 ovarian tumour cells. […] In contrast under the tested conditions, radiation doses up to 5 Gray had no effect on cellular RNA integrity, as no changes in RIN values were observed compared to samples prior to radiation treatment (FIG. 5B). If cells were pre-incubated for 24 hours with 0.1 μM docetaxel prior to 10 Gray radiation treatment, the cellular RIN value decreased to 75% of pre-treatment values. There were additional decreases in RIN when radiation and chemotherapy were used together concurrently. […] Moreover, the combination of both radiation and docetaxel treatment induces even stronger reductions in both cellular RNA content and RNA integrity. These observations are consistent with those described above for tumours of patients with locally advanced breast cancer, in particular for the combined therapy post-treatment, where RNA concentration fell dramatically in response to FEC-D chemotherapy with concurrent radiation therapy and where differences between between responding patients (pCR) and non-reponding patients (no pCR) appeared to be observed post-treatment."}, "[6]": {"system": "breast cancer, T3, T4 or TxN2 disease", "conditions": "cited from earlier work"}, "[7]": {"system": "anthracycline-resistant metastatic breast cancer", "conditions": "cited from earlier work"}, "A2780 cells [8]": {"system": "A2780 cells", "assay": "A2780 cells treated with 5 nM Docetaxel, 10 Gy radiation or both for 72 or 96 hours (RIN, RDI)", "format": "cell-based", "conditions": "n=3", "experimental": "In another experiment, A2780 cells were treated with 5 nM Docetaxel, 10 Gy Radiation and 10 Gy Radiation+5 nM Docetaxel for 72 hours or 96 hours."}, "[9]": {"system": "MCF-7 breast tumour cells", "assay": "RNA concentration and RIN in MCF-7 cells after radiation with or without docetaxel", "format": "cell-based", "experimental": "The effects of the above treatments on MCF-7 (ER+, HER2−) cells (FIGS. 7A and 7B) were examined, findings were similar to those of SKBR3 cells, with 4% and 73% reductions in RNA levels observed for the 10 Gray and 10 Gray/0.1 μM docetaxel treatments, respectively. […] Moreover, only a 4% reduction in cellular RIN values were observed when cells were pre-treated with 0.1 μM docetaxel prior to the 10 Gray radiation."}, "[10]": {"system": "breast cancer, T1c-T3 N0-N1 disease", "conditions": "preoperative AC alone versus AC with addition of docetaxel; cited from earlier work"}, "[11]": {"conditions": "paclitaxel 30 mg/m^2 twice weekly with radiation to 45 Gy, then surgery"}, "[12]": {"conditions": "35 mg/m^2 weekly for 3 of every 4 weeks"}, "[13]": {"conditions": "pre-treated with 0.1 μM docetaxel prior to 10 Gray radiation"}, "[14]": {"conditions": "after 4 cycles of CVAP, 4 cycles of docetaxel versus 4 more cycles of CVAP, intention-to-treat"}}, "note": "Like-named read-outs stand apart in the source and are kept apart here.", "data": [{"smiles": "CC(=O)O[C@H]1C(=O)[C@@]2(C)[C@H]([C@H](OC(=O)c3ccccc3)[C@]3(O)C[C@H](OC(=O)[C@H](O)[C@@H](NC(=O)c4ccccc4)c4ccccc4)C(C)=C1C3(C)C)[C@]1(OC(C)=O)CO[C@@H]1C[C@@H]2O", "note": "[paclitaxel]", "values": [{"measurement": "patients achieving a pCR", "setting": "[1]; [11]", "value": "Sixteen"}, {"measurement": "patients achieving a pPR", "setting": "[1]; [11]", "value": 18, "unit": "%"}, {"measurement": "grade 4 leucopenia", "setting": "[1]; postoperative phase", "value": 10, "unit": "%"}, {"measurement": "grade 4 toxicities", "setting": "[1]; preoperative chemoradiation phase, paclitaxel 30 mg/m^2 twice weekly with radiation to 45 Gy", "value": "No grade 4 toxicities were observed"}, {"measurement": "clinical CR", "setting": "[2]", "value": 82.6, "unit": "%"}, {"measurement": "overall 2-year survival", "setting": "[2]", "value": 80.7, "unit": "%"}, {"measurement": "pCR", "setting": "[2]", "value": 52.2, "unit": "%"}]}, {"smiles": "COc1cccc2c1C(=O)c1c(O)c3c(c(O)c1C2=O)C[C@@](O)(C(=O)CO)C[C@@H]3O[C@H]1C[C@H](N)[C@@H](O)[C@H](C)O1", "note": "[Epirubicin]", "values": [{"measurement": "RIN value vs Epirubicin dose", "setting": "A2780 cells [3]; low doses of Epirubicin", "value": "loss in RIN value"}, {"measurement": "RDI value vs Epirubicin dose", "setting": "A2780 cells [3]; low drug doses", "value": "RDI values increase"}, {"measurement": "RNA concentration vs Epirubicin dose", "setting": "A2780 cells [3]; low drug doses", "value": "increased loss in RNA concentration"}, {"measurement": "RIN value vs Epirubicin dose", "setting": "MCF-7 cells; combined with 10 Gy radiation", "value": "loss in RIN value"}, {"measurement": "RNA concentration vs Epirubicin dose", "setting": "MCF-7 cells; increasing doses of Epirubicin", "value": "loss in RNA concentration"}, {"measurement": "RDI value vs Epirubicin dose", "setting": "MCF-7 cells; with radiation, up to 100 uM Epirubicin", "value": "increase in RDI value"}]}, {"smiles": "CC(=O)O[C@@]12CO[C@@H]1C[C@H](O)[C@@]1(C)C(=O)[C@H](O)C3=C(C)[C@@H](OC(=O)[C@H](O)[C@@H](NC(=O)OC(C)(C)C)c4ccccc4)C[C@@](O)([C@@H](OC(=O)c4ccccc4)[C@H]21)C3(C)C", "note": "[docetaxel]", "values": [{"measurement": "overall survival (OS)", "setting": "metastatic breast cancer; [12]", "value": 18.6, "unit": "months"}, {"measurement": "progression-free survival", "setting": "metastatic breast cancer; [12]", "value": 5.5, "unit": "months"}, {"measurement": "overall survival (OS)", "setting": "metastatic breast cancer; 100 mg/m^2 every 3 weeks", "value": 18.3, "unit": "months"}, {"measurement": "progression-free survival", "setting": "metastatic breast cancer; 100 mg/m^2 every 3 weeks", "value": 5.7, "unit": "months"}, {"measurement": "overall serious toxicity", "setting": "metastatic breast cancer; Q 3-week arm", "value": 88.1, "unit": "%"}, {"measurement": "overall serious toxicity", "setting": "metastatic breast cancer; weekly arm", "value": 55.9, "unit": "%"}, {"measurement": "effect of concurrent docetaxel on effects of radiation on RNA content and RNA integrity", "setting": "[4]; 0.1 μM docetaxel, 10 Gray", "value": "strongly augmented"}, {"measurement": "cellular RNA concentration, % of untreated cells", "setting": "[4]; [13]", "value": 19, "unit": "%"}, {"measurement": "reduction in cellular RNA concentration", "setting": "[4]; [13]", "value": 5, "unit": "fold"}, {"measurement": "reduction in cellular RIN values", "setting": "[4]; radiation, cells pre-treated with docetaxel", "value": 9, "unit": "%"}, {"measurement": "effect of concurrent docetaxel on radiation-induced reduction of RNA content and integrity", "setting": "[5]; 0.1 μM docetaxel, 10 Gray", "value": "strongly augmented"}, {"measurement": "cellular RIN value, % of pre-treatment values", "setting": "[5]; pre-incubated 24 hours with 0.1 μM docetaxel prior to 10 Gray radiation", "value": 75, "unit": "%"}, {"measurement": "additional reduction of cellular RNA concentration", "setting": "[5]; pre-incubation with 0.1 μM docetaxel, 10 Gray radiation, versus radiation alone", "value": 6.5, "unit": "fold"}, {"measurement": "DFS", "setting": "[6]; 38 months median follow-up", "value": 90, "unit": "%"}, {"measurement": "OS", "setting": "[6]; 38 months median follow-up", "value": 97, "unit": "%"}, {"measurement": "cCR", "setting": "[6]; [14]", "value": 94, "unit": "%"}, {"measurement": "pCR", "setting": "[6]; [14]", "value": 31, "unit": "%"}, {"measurement": "response rates", "setting": "[7]", "value": "up to 50%"}, {"measurement": "mean RDI value", "setting": "A2780 cells [8]; 10 Gy radiation + 5 nM Docetaxel compared with Docetaxel alone, 96 hr", "value": "increase in RDI value"}, {"measurement": "mean RIN value", "setting": "A2780 cells [8]; 10 Gy radiation + 5 nM Docetaxel, 72 hr", "value": "increased loss in RIN value"}, {"measurement": "effect of concurrent docetaxel on effect of radiation on RNA content and integrity", "setting": "[9]; 0.1 μM docetaxel, 10 Gray", "value": "only slightly augmented"}, {"measurement": "reduction in RNA levels", "setting": "[9]; 10 Gray/0.1 μM docetaxel", "value": 73, "unit": "%"}, {"measurement": "reduction in cellular RIN values", "setting": "[9]; [13]", "value": 4, "unit": "%"}, {"measurement": "clinical complete response (cCR)", "setting": "[10]", "value": 63.6, "unit": "%"}, {"measurement": "pCR", "setting": "[10]", "value": 26.1, "unit": "%"}, {"measurement": "proportion of patients with negative nodes", "setting": "[10]", "value": 58.2, "unit": "%"}]}]}
